According to PubChem BioAssay AID1963833 (Molecular Pharmacology Branch, DTP, NCI, 2024):

Tested on: 883617-216-R-J1-PDC complex spheroid viability
Assay: Anticancer human tumor 883617-216-R-J1-PDC patient-derived bladder carcinoma cell line growth inhibition [POLQ]
Settings: for IC50: curve of first compound; for viability, T/C: stronger effect = lower value
In short: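 Three-cell-type spheroids modelling solid tumor plus stroma served as the readout system; POL inhibitors were tested individually and in combination, concentration ranges set by clinical Cmax where known.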

[1] = second compound 0.0316 µM, first compound 0.0316 µM
[2] = second compound 0.0316 µM, first compound 0.1 µM
[3] = second compound 0.0316 µM, first compound 0.316 µM
[4] = second compound 0.0316 µM, first compound 1 µM
[5] = second compound 0.1 µM, first compound 0.0316 µM
[6] = second compound 0.1 µM, first compound 0.1 µM
[7] = second compound 0.1 µM, first compound 0.316 µM
[8] = second compound 0.1 µM, first compound 1 µM
[9] = second compound 0.316 µM, first compound 0.0316 µM
[10] = second compound 0.316 µM, first compound 0.1 µM
[11] = second compound 0.316 µM, first compound 0.316 µM
[12] = second compound 0.316 µM, first compound 1 µM
[13] = second compound 1 µM, first compound 0.0316 µM
[14] = second compound 1 µM, first compound 0.1 µM
[15] = second compound 1 µM, first compound 0.316 µM
[16] = second compound 1 µM, first compound 1 µM
[17] = second compound 3.16 µM, first compound 0.0316 µM
[18] = second compound 3.16 µM, first compound 0.1 µM
[19] = second compound 3.16 µM, first compound 0.316 µM
[20] = second compound 3.16 µM, first compound 1 µM
[21] = second compound 10 µM, first compound 0.0316 µM
[22] = second compound 10 µM, first compound 0.1 µM
[23] = second compound 10 µM, first compound 0.316 µM
[24] = second compound 10 µM, first compound 1 µM
[25] = second compound 0.0316 µM, first compound 3.16 µM
[26] = second compound 0.0316 µM, first compound 10 µM
[27] = second compound 0.1 µM, first compound 3.16 µM
[28] = second compound 0.1 µM, first compound 10 µM
[29] = second compound 0.316 µM, first compound 3.16 µM
[30] = second compound 0.316 µM, first compound 10 µM
[31] = second compound 1 µM, first compound 3.16 µM
[32] = second compound 1 µM, first compound 10 µM
[33] = second compound 3.16 µM, first compound 3.16 µM
[34] = second compound 3.16 µM, first compound 10 µM
[35] = second compound 10 µM, first compound 3.16 µM
[36] = second compound 10 µM, first compound 10 µM
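Also: spheroids exposed to compounds for seven days before readout.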
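For viability, T/C in this document: 100% = DMSO vehicle control viability.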

## C=CCn1c(=O)c2cnc(Nc3ccc(N4CCN(C)CC4)cc3)nc2n1-c1cccc(C(C)(C)O)n1 + COC1C(OC(N)=O)C(O)C(Oc2ccc3c(O)c(NC(=O)c4ccc(O)c(CC=C(C)C)c4)c(=O)oc3c2C)OC1(C)C
Second compound 0.0316 µM
  IC50: 916 nM
Second compound 0.1 µM
  IC50: 811 nM
Second compound 0.316 µM
  IC50: 945 nM
Second compound 1 µM
  IC50: 889 nM
Second compound 3.16 µM
  IC50: 883 nM
Second compound 10 µM
  IC50: 820 nM
Second compound 0.0316 µM, first compound 0.00316 µM
  viability, T/C: 113%
Second compound 0.0316 µM, first compound 0.01 µM
  viability, T/C: 97.9%
[1]
  viability, T/C: 112%
[2]
  viability, T/C: 94.7%
[3]
  viability, T/C: 84.6%
[4]
  viability, T/C: 47%
Second compound 0.1 µM, first compound 0.00316 µM
  viability, T/C: 101%
Second compound 0.1 µM, first compound 0.01 µM
  viability, T/C: 91.9%
[5]
  viability, T/C: 98.9%
[6]
  viability, T/C: 120%
[7]
  viability, T/C: 85.9%
[8]
  viability, T/C: 42%
Second compound 0.316 µM, first compound 0.00316 µM
  viability, T/C: 121%
Second compound 0.316 µM, first compound 0.01 µM
  viability, T/C: 99.8%
[9]
  viability, T/C: 104%
[10]
  viability, T/C: 107%
[11]
  viability, T/C: 77.8%
[12]
  viability, T/C: 48.6%
Second compound 1 µM, first compound 0.00316 µM
  viability, T/C: 103%
Second compound 1 µM, first compound 0.01 µM
  viability, T/C: 95.2%
[13]
  viability, T/C: 105%
[14]
  viability, T/C: 112%
[15]
  viability, T/C: 92.2%
[16]
  viability, T/C: 45.2%
Second compound 3.16 µM, first compound 0.00316 µM
  viability, T/C: 106%
Second compound 3.16 µM, first compound 0.01 µM
  viability, T/C: 101%
[17]
  viability, T/C: 98.6%
[18]
  viability, T/C: 104%
[19]
  viability, T/C: 90%
[20]
  viability, T/C: 44.8%
Second compound 10 µM, first compound 0.00316 µM
  viability, T/C: 104%
Second compound 10 µM, first compound 0.01 µM
  viability, T/C: 87.1%
[21]
  viability, T/C: 105%
[22]
  viability, T/C: 91.6%
[23]
  viability, T/C: 84%
[24]
  viability, T/C: 42.8%

## CC1COCCN1c1cc(-c2ccnn2C)c2ccnc(-c3ccn[nH]3)c2n1 (stereo unspecified) + COC1C(OC(N)=O)C(O)C(Oc2ccc3c(O)c(NC(=O)c4ccc(O)c(CC=C(C)C)c4)c(=O)oc3c2C)OC1(C)C
Second compound 0.0316 µM
  IC50: 297 nM
Second compound 0.1 µM
  IC50: 285 nM
Second compound 0.316 µM
  IC50: 124 nM
Second compound 1 µM
  IC50: 154 nM
Second compound 3.16 µM
  IC50: 156 nM
Second compound 10 µM
  IC50: 139 nM
[1]
  viability, T/C: 89.7%
[2]
  viability, T/C: 63.8%
[3]
  viability, T/C: 53.1%
[4]
  viability, T/C: 37%
[25]
  viability, T/C: 28.1%
[26]
  viability, T/C: 30.7%
[5]
  viability, T/C: 83.2%
[6]
  viability, T/C: 62.9%
[7]
  viability, T/C: 49.5%
[8]
  viability, T/C: 37.7%
[27]
  viability, T/C: 31.7%
[28]
  viability, T/C: 27%
[9]
  viability, T/C: 91.2%
[10]
  viability, T/C: 51%
[11]
  viability, T/C: 38.6%
[12]
  viability, T/C: 40.8%
[29]
  viability, T/C: 33.1%
[30]
  viability, T/C: 27.3%
[13]
  viability, T/C: 82.7%
[14]
  viability, T/C: 54.3%
[15]
  viability, T/C: 41.7%
[16]
  viability, T/C: 32.5%
[31]
  viability, T/C: 26.5%
[32]
  viability, T/C: 24.4%
[17]
  viability, T/C: 86.3%
[18]
  viability, T/C: 53.3%
[19]
  viability, T/C: 44%
[20]
  viability, T/C: 34.8%
[33]
  viability, T/C: 29.6%
[34]
  viability, T/C: 29.5%
[21]
  viability, T/C: 91.1%
[22]
  viability, T/C: 54.4%
[23]
  viability, T/C: 39.2%
[24]
  viability, T/C: 32.2%
[35]
  viability, T/C: 29.8%
[36]
  viability, T/C: 32.3%

## CCCS(=O)(=O)Nc1ccc(F)c(C(=O)c2c[nH]c3ncc(-c4ccc(Cl)cc4)cc23)c1F + COC1C(OC(N)=O)C(O)C(Oc2ccc3c(O)c(NC(=O)c4ccc(O)c(CC=C(C)C)c4)c(=O)oc3c2C)OC1(C)C
Second compound 0.0316 µM
  IC50: 8230 nM
Second compound 0.1 µM
  IC50: 9580 nM
Second compound 0.316 µM
  IC50: > 10000 nM
Second compound 1 µM
  IC50: 9070 nM
Second compound 3.16 µM
  IC50: > 10000 nM
Second compound 10 µM
  IC50: 8990 nM
[1]
  viability, T/C: 90.3%
[2]
  viability, T/C: 103%
[3]
  viability, T/C: 103%
[4]
  viability, T/C: 94.2%
[25]
  viability, T/C: 84.6%
[26]
  viability, T/C: 42.9%
[5]
  viability, T/C: 105%
[6]
  viability, T/C: 119%
[7]
  viability, T/C: 108%
[8]
  viability, T/C: 105%
[27]
  viability, T/C: 76.8%
[28]
  viability, T/C: 49%
[9]
  viability, T/C: 102%
[10]
  viability, T/C: 102%
[11]
  viability, T/C: 102%
[12]
  viability, T/C: 103%
[29]
  viability, T/C: 90%
[30]
  viability, T/C: 50.1%
[13]
  viability, T/C: 103%
[14]
  viability, T/C: 93.9%
[15]
  viability, T/C: 106%
[16]
  viability, T/C: 98.5%
[31]
  viability, T/C: 100%
[32]
  viability, T/C: 45.3%
[17]
  viability, T/C: 94.8%
[18]
  viability, T/C: 88%
[19]
  viability, T/C: 103%
[20]
  viability, T/C: 105%
[33]
  viability, T/C: 96.4%
[34]
  viability, T/C: 56.4%
[21]
  viability, T/C: 106%
[22]
  viability, T/C: 96.7%
[23]
  viability, T/C: 97.3%
[24]
  viability, T/C: 103%
[35]
  viability, T/C: 93.2%
[36]
  viability, T/C: 45.4%
